Source: patent publication US9242984B2, “Pyrazolyl derivatives as Syk inhibitors” (Merck Sharp & Dohme Corp., priority 2012, dated 2016)
Read-outs that look alike come from different tables or passages of the source.

Biological target: T1, recombinant human Syk (GST-hSyk fusion protein) (Homo sapiens, UniProt P43405)
T1 construct: purchased Carna Biosciences 08-176
Test: Homogeneous Time-Resolved Fluorescence (HTRF) assay for the recombinant human Syk enzyme
Format: biochemical
Settings: 10-dose titration, 25 μM ATP
Experimental: Syk inhibition may be determined using the following assay protocol:
Homogeneous Time-Resolved Fluorescence (HTRF) Assay for the Recombinant Human Syk Enzyme:
A recombinant GST-hSyk fusion protein was used to measure potency of compounds to inhibit human Syk activity. The recombinant human GST-Syk (Carna Biosciences #08-176) (5 pM final concentration) was incubated with various concentrations of the inhibitor diluted in DMSO (0.1% final concentration) for 10 minutes at room temperature in 15 mM Tris-HCl (pH 7.5), 0.01% tween 20, 2 mM DTT in 384 well plate format. To initiate the reaction the biotinylated substrate peptide (250 nM final concentration) that contains the phosphorylation site for Syk was added with magnesium (5 mM final concentration) and ATP (25 μM final concentration). Final volume of the reaction was 10 μL. Phosphorylation of the peptide was allowed to proceed for 45 minutes at room temperature. To quench the reaction and detect the phosphorylated product, 2 nM of a Europium-anti-phosphotyrosine antibody (Perkin Elmer #AD0161) and 70 nM SA-APC (Perkin-Elmer #CR130-100) were added together in 15 mM Tris pH 7.5, 40 mM EDTA, 0.01% tween 20. Final volume of the quenching solution was 10 μL. The resulting HTRF signal was measured after 30 minutes on an EnVision (Perkin-Elmer) reader using a time-resolved fluorescence protocol. IC50 was determined following 10-dose titration (10 μM to 0.508 nM) and four parameter logistic curve fitting using the Merck Assay Data Analyzer. The rhSyk activity (IC50) is expressed as +++(100 nM or less), ++(between 100 and 1000 nM), +(between 1 and 10 μM).

[1] = IC50 class, read-out: rhSYK Activity

## Cc1cc(Nc2cc(C(F)F)ccn2)nc(-c2cnn(C(C)C3CNC(=O)C3)c2)c1 (stereo not shown) [Example 1.62, 4-{1-[4-(6-{[4-(difluoromethyl)pyridin-2-yl]amino}-4-methylpyridin-2-yl)-1H-pyrazol-1-yl]ethyl}pyrrolidin-2-one]
[1]
  IC50: ≤ 100 nM

## Cc1cc(Nc2nccc(C(C)(F)F)n2)cc(-c2cnn(CC3OC(=O)NC3C)c2)c1 (single isomer, unassigned) [Example 23.12, 5-{[4-(3-{[4-(1,1-difluoroethyl)pyrimidin-2-yl]amino}-5-methylphenyl)-1H-pyrazol-1-yl]methyl}-4-methyl-1,3-oxazolidin-2-one]
[1]
  IC50: ≤ 100 nM

## Cc1cc(Nc2nccc(C(F)(F)F)n2)cc(-c2cnn(C3CCCC(O)C3O)c2)c1 (single isomer, unassigned) [Example 10.1, (R or S) 3-[4-(3-methyl-5-{[4-(trifluoromethyl)pyrimidin-2-yl]amino}phenyl)-1H-pyrazol-1-yl]cyclohexane-1,2-diol]
read-out: rhSYK IC50
  IC50: 7.4 nM
[1]
  IC50: ≤ 100 nM

## Cc1cc(Nc2nccc(C(F)F)n2)cc(-c2cnn(CC3(O)CCC3)c2)c1 [Example 5.41, 1-{[4-(3-{[4-(difluoromethyl)pyrimidin-2-yl]amino}-5-methylphenyl)-1H-pyrazol-1-yl]methyl}cyclobutanol]
[1]
  IC50: ≤ 100 nM

## COC(=O)C1CCC(n2cc(-c3cc(C)cc(Nc4nccc(C(F)(F)F)n4)c3)cn2)c2ccccc21 (stereo not shown) [Example 3.52, methyl 4-[4-(3-methyl-5-{[4-(trifluoromethyl)pyrimidin-2-yl]amino}-phenyl)-1H-pyrazol-1-yl]-1,2,3,4-tetrahydronaphthalene-1-carboxylate]
[1]
  IC50: 100 to 1000 nM

## Cc1cc(Nc2nccc(C(F)F)n2)cc(-c2cnn(C3CCCC(O)C3O)c2)c1 (single isomer, unassigned) [Example 10.6, 3-[4-(3-{[4-(difluoromethyl)pyrimidin-2-yl]amino}-5-methylphenyl)-1H-pyrazol-1-yl]cyclohexane-1,2-diol]
read-out: rhSYK IC50
  IC50: 1.3 nM
[1]
  IC50: ≤ 100 nM

## Cc1cc(Nc2nccc(C(C)(F)F)n2)cc(-c2cnn(CC3CNC(=O)O3)c2)c1 (stereo not shown) [Example 3.126, 5-{[4-(3-{[4-(1,1-difluoroethyl)pyrimidin-2-yl]amino}-5-methylphenyl)-1H-pyrazol-1-yl]methyl}-1,3-oxazolidin-2-one]
[1]
  IC50: ≤ 100 nM

## Cc1cc(Nc2nccc(OC(C)C)n2)cc(-c2cnn(C[C@](C)(O)CO)c2)c1 [Example 2.96, (2S)-2-methyl-3-[4-(3-methyl-5-{[4-(1-methylethoxy)pyrimidin-2-yl]amino}phenyl)-1H-pyrazol-1-yl]propane-1,2-diol]
[1]
  IC50: ≤ 100 nM

## Cc1cc(Nc2nccc(C(F)(F)F)n2)cc(-c2cnn(CC3CNC(=O)O3)c2)c1 (stereo not shown) [Example 3.33, 5-{[4-(3-methyl-5-{[4-(trifluoromethyl)pyrimidin-2-yl]amino}-phenyl)-1H-pyrazol-1-yl]methyl}-1,3-oxazolidin-2-one]
[1]
  IC50: ≤ 100 nM

## COc1nc(Nc2cc(C)cc(-c3cnn(C[C@](C)(O)CO)c3)c2)ncc1F [Example 2.89, (2S)-3-(4-{3-[(5-fluoro-4-methoxypyrimidin-2-yl)amino]-5-methylphenyl}-1H-pyrazol-1-yl)-2-methylpropane-1,2-diol]
[1]
  IC50: ≤ 100 nM

## Cc1cc(Nc2nccc(C(F)(F)F)n2)cc(-c2cnn(C(C)C(O)C(N)=O)c2)c1 (stereo not shown) [Example 7.5, 2-hydroxy-3-[4-(3-methyl-5-{[4-(trifluorometh-yl)pyrimidin-2-yl]amino}-phenyl)-1H-pyrazol-1-yl]butanamide]
[1]
  IC50: ≤ 100 nM

## Cc1cc(Nc2nccc(C(F)F)n2)cc(-c2cnn(C3CCC(C(=O)O)CC3)c2)c1 (stereo not shown) [Example 2.60, 4-[4-(3-{[4-(difluoromethyl)pyrimidin-2-yl]amino}-5-methylphenyl)-1H-pyrazol-1-yl]cyclohexanecarboxylic acid]
[1]
  IC50: ≤ 100 nM

## Cc1cc(Nc2nccc(C(F)(F)F)n2)cc(-c2cnn(CC(O)C(F)(F)F)c2)c1 (single isomer, unassigned) [Example 3.44, 1,1,1-trifluoro-3-[4-(3-methyl-5-{[4-(trifluoromethyl)pyrimidin-2-yl]amino}phenyl)-1H-pyrazol-1-yl]propan-2-ol]
[1]
  IC50: ≤ 100 nM

## Cc1cc(Nc2nccc(C(F)F)n2)cc(-c2cnn(Cc3cc[nH]c(=O)c3)c2)c1 [Example 2.72, 4-{[4-(3-{[4-(difluoromethyl)pyrimidin-2-yl]amino}-5-methylphenyl)-1H-pyrazol-1-yl]methyl}pyridin-2(1H)-one]
[1]
  IC50: ≤ 100 nM

## Cc1cc(Nc2nccc(C(F)(F)F)n2)cc(-c2cnn(C[C@@H](O)C(=O)O)c2)n1 [Example 11.20, (2R)-2-hydroxy-3-[4-(6-methyl-4-{[4-(trifluoro-methyl)pyrimidin-2-yl]amino}pyridin-2-yl)-1H-pyrazol-1-yl]propanoic acid]
[1]
  IC50: ≤ 100 nM

## CCOC(=O)CCc1cnn(-c2cc(C)cc(Nc3nccc(OC)n3)c2)c1 [Example 19.5, Ethyl 3-(1-{3-[(4-methoxypyrimidin-2-yl)amino]-5-methylphenyl}-1H-pyrazol-4-yl)propanoate]
[1]
  IC50: 100 to 1000 nM

## 3-[4-(4-methyl-6-{[4-(trifluoromethyl)pyridin-2-yl]amino}pyrimidin-2-yl)-1H-pyrazol-1-yl]propanoic acid [Example 1.40]
[1]
  IC50: ≤ 100 nM

## COC(=O)CCCn1cc(-c2cc(C)cc(Nc3nccc(C(F)(F)F)n3)c2)cn1 [Example 3.49, methyl 4-[4-(3-methyl-5-{[4-(trifluoromethyl)-pyrimidin-2-yl]amino}-phenyl)-1H-pyrazol-1-yl]butanoate]
[1]
  IC50: ≤ 100 nM

## Cc1cc(Nc2nccc(C(C)(C)C)n2)cc(-c2cnn(C[C@H](O)C(N)=O)c2)c1 [Example 6.7, (2S)-3-(4-{3-[(4-tert-butyl-pyrimidin-2-yl)amino]-5-methylphenyl}-1H-pyrazol-1-yl)-2-hydroxy-propanamide]
[1]
  IC50: ≤ 100 nM

## Cc1cc(Nc2nccc(C(F)(F)F)n2)cc(-c2cnn(CC(=O)N3CCCC3)c2)c1 [Example 3.27, N-{3-methyl-5-[1-(2-oxo-2-pyrrolidin-1-ylethyl)-1H-pyrazol-4-yl]phenyl}-4-(trifluoromethyl)pyrimidin-2-amine]
[1]
  IC50: ≤ 100 nM

## Cc1cc(Nc2nccc(C(F)(F)F)n2)cc(-c2cnn(CC3OC(=O)NC3C(C)C)c2)c1 (single isomer, unassigned) [Example 23.6, 4-(1-methylethyl)-5-{[4-(3-methyl-5-{[4-(trifluoromethyl)pyrimidin-2-yl]amino}phenyl)-1H-pyrazol-1-yl]methyl}-1,3-oxazolidin-2-one]
[1]
  IC50: ≤ 100 nM

## Cc1cc(Nc2nccc(C)n2)cc(-c2cnn(CC(C)(O)CO)c2)c1 (single isomer, unassigned) [Example 25.2, 2-methyl-3-(4-{3-methyl-5-[(4-methylpyrimidin-2-yl)amino]phenyl}-1H-pyrazol-1-yl)propane-1,2-diol]
[1]
  IC50: ≤ 100 nM

## O=C1NCC(Cn2cc(-c3cccc(Nc4nccc(C(F)F)n4)c3)cn2)O1 (stereo not shown) [Example 2.65, 5-{[4-(3-{[4-(difluoromethyl)pyrimidin-2-yl]amino}phenyl)-1H-pyrazol-1-yl]methyl}-1,3-oxazolidin-2-one]
[1]
  IC50: ≤ 100 nM

## CCOC(=O)CCc1cnn(-c2cc(C)cc(Nc3nccc(C)n3)c2)c1 [Example 19.6, Ethyl 3-(1-{3-methyl-5-[(4-methyl-pyrimidin-2-yl)amino]-phenyl}-1H-pyrazol-4-yl)propanoate]
[1]
  IC50: 100 to 1000 nM

## Cc1cc(Nc2ncccn2)cc(-c2cnn(C(C)c3ccc(C(N)=O)cc3)c2)c1 (single isomer, unassigned) [Example 28.2, 4-(1-(4-(3-methyl-5-(pyrimidin-2-ylamino)phenyl)-1H-pyrazol-1-yl)ethyl)benzamide]
read-out: rhSYK IC50
  IC50: 7.2 nM
[1]
  IC50: ≤ 100 nM

## Cc1cc(Nc2nccc(C(F)F)n2)cc(-c2cnn(C3CCCC(C)(O)C3(C)O)c2)c1 (stereo not shown) [Example 22.12, 3-[4-(3-{[4-(difluoromethyl)pyrimidin-2-yl]amino}-5-methylphenyl)-1H-pyrazol-1-yl]-1,2-dimethylcyclohexane-1,2-diol]
read-out: rhSYK IC50
  IC50: 7.4 nM
[1]
  IC50: ≤ 100 nM

## Cc1cc(Nc2nccc(C(F)(F)F)n2)cc(-c2cnn(CC(O)c3ccccc3)c2)c1 (racemic) [Example 5.1, 2-(4-(3-methyl-5-((4-(trifluoromethyl)pyrimidin-2-yl)amino)phenyl)-1H-pyrazol-1-yl)-1-phenylethanol]
read-out: rhSYK IC50
  IC50: 58.5 nM
[1]
  IC50: ≤ 100 nM

## COc1ccnc(Nc2cc(C)cc(-c3cnn(C[C@H](O)C(N)=O)c3)c2)n1 [Example 6.4, (2S)-2-hydroxy-3-(4-{3-[(4-methoxypyrimidin-2-yl)amino]-5-methylphenyl}-1H-pyrazol-1-yl)propanamide]
[1]
  IC50: ≤ 100 nM

## CCC(C(=O)OC)n1cc(-c2cc(C)cc(Nc3nccc(C(F)(F)F)n3)c2)cn1 (stereo not shown) [Example 3.28, methyl 2-[4-(3-methyl-5-{[4-(trifluoromethyl)pyrimidin-2-yl]amino}-phenyl)-1H-pyrazol-1-yl]butanoate]
[1]
  IC50: ≤ 100 nM
